Values quoted from earlier work as cited in US20250073219A1, “NEW COMPOSITION COMPRISING IMMUNOMODULATORY DRUG” (NANEXA AB, priority 2021, published 2025).

Conditions: oral, about 25 mg once daily, plasma; cited from earlier work

SMILES: Nc1cccc2c1CN(C1CCC(=O)NC1=O)C2=O (stereo not drawn) [lenalidomide, 3-(4-amino-1-3-dihydro-l-ovo-2H-isoindol-2yl)-2,6-piperidinedione]
- Cmax obtained from a dosing regimen comprising orally administering an about 25 mg dose once daily: about 568 ng/ml
